Experimental data from PubChem BioAssay AID248 (DTP/NCI, 2004).
Toxic doses and inconclusive results are not listed. Rule as the data show it: active = T/C of 150% or more; inactive = T/C below 125%.

System: L1210 leukemia ip in BDF1 mice, survival T/C
Assay: NCI In Vivo Anticancer Drug Screen. Data for tumor model L1210 Leukemia (intraperitoneal) in B6D2F1 (BDF1) mice
Conditions: endpoint: mean survival time, higher = longer survival
Outline: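 In this screen, tumor-bearing mice given compound are compared to those given vehicle, and their survival values are reported as a treated-to-control quotient.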

[1] = dose: 75.0 mg/kg/injection, schedule: Q01DX001 (ip), vehicle: saline
[2] = dose: 150.0 mg/kg/injection, schedule: Q01DX001 (ip), vehicle: saline
[3] = dose: 300.0 mg/kg/injection, schedule: Q01DX001 (ip), vehicle: saline
[4] = dose: 100.0 mg/kg/injection, schedule: Q04DX003 (ip), vehicle: saline with Tween-80
[5] = dose: 100.0 mg/kg/injection, schedule: Q04DX003 (ip), vehicle: saline
[6] = dose: 200.0 mg/kg/injection, schedule: Q04DX003 (ip), vehicle: saline
[7] = dose: 400.0 mg/kg/injection, schedule: Q04DX003 (ip), vehicle: saline
[8] = dose: 100.0 mg/kg/injection, schedule: Q01DX001 (ip), vehicle: carboxymethylcellulose (CMC)
[9] = dose: 200.0 mg/kg/injection, schedule: Q01DX001 (ip), vehicle: carboxymethylcellulose (CMC)
[10] = dose: 400.0 mg/kg/injection, schedule: Q01DX001 (ip), vehicle: carboxymethylcellulose (CMC)
[11] = dose: 100.0 mg/kg/injection, schedule: Q01DX009 (ip), vehicle: saline with Tween-80
[12] = dose: 200.0 mg/kg/injection, schedule: Q01DX009 (ip), vehicle: saline with Tween-80
[13] = dose: 400.0 mg/kg/injection, schedule: Q01DX009 (ip), vehicle: saline with Tween-80
[14] = dose: 100.0 mg/kg/injection, schedule: Q01DX001 (ip), vehicle: saline
[15] = dose: 200.0 mg/kg/injection, schedule: Q01DX001 (ip), vehicle: saline
[16] = dose: 400.0 mg/kg/injection, schedule: Q01DX001 (ip), vehicle: saline
[17] = dose: 50.0 mg/kg/injection, schedule: Q01DX009 (ip), vehicle: Klucel (hydroxypropylcellulose) (HPC)
[18] = dose: 100.0 mg/kg/injection, schedule: Q01DX009 (ip), vehicle: Klucel (hydroxypropylcellulose) (HPC)
[19] = dose: 100.0 mg/kg/injection, schedule: Q04DX003 (ip), vehicle: Klucel (hydroxypropylcellulose) (HPC)
[20] = dose: 200.0 mg/kg/injection, schedule: Q04DX003 (ip), vehicle: Klucel (hydroxypropylcellulose) (HPC)
[21] = dose: 200.0 mg/kg/injection, schedule: Q01DX009 (ip), vehicle: Klucel (hydroxypropylcellulose) (HPC)
[22] = dose: 400.0 mg/kg/injection, schedule: Q04DX003 (ip), vehicle: Klucel (hydroxypropylcellulose) (HPC)

Measured: T/C

CCCC(NC(=O)C(C)N)C(=O)O (stereo not drawn)
inactive: dose: 12.5 mg/kg/injection, schedule: Q04DX002 (ip), vehicle: saline 105 % of control | dose: 25.0 mg/kg/injection, schedule: Q04DX002 (ip), vehicle: saline 102 % of control | dose: 50.0 mg/kg/injection, schedule: Q04DX002 (ip), vehicle: saline 102 % of control

NC1CCCCCCC1O (stereo not drawn)
inactive: dose: 5.0 mg/kg/injection, schedule: Q01DX009 (ip), vehicle: saline with Tween-80 105 % of control | dose: 10.0 mg/kg/injection, schedule: Q01DX009 (ip), vehicle: saline with Tween-80 94 % of control | dose: 20.0 mg/kg/injection, schedule: Q01DX009 (ip), vehicle: saline with Tween-80 100 % of control

CC(C)=CCn1cnc2c1c(=O)n(C)c(=O)n2C
inactive: dose: 50.0 mg/kg/injection, schedule: Q04DX002 (ip), vehicle: Klucel (hydroxypropylcellulose) (HPC) 100 % of control | dose: 100.0 mg/kg/injection, schedule: Q04DX002 (ip), vehicle: Klucel (hydroxypropylcellulose) (HPC) 88 % of control | dose: 200.0 mg/kg/injection, schedule: Q04DX002 (ip), vehicle: Klucel (hydroxypropylcellulose) (HPC) 96 % of control

O=C(Cl)c1cc(Cl)nc2c(Cl)cc(Cl)cc12
inactive: [1] 86 % of control | [2] 94 % of control | [3] 90 % of control

C/C(=N/N)c1ccc(Br)cc1
inactive: dose: 3.7 mg/kg/injection, schedule: Q01DX009 (ip), vehicle: saline 107 % of control | dose: 5.0 mg/kg/injection, schedule: Q01DX001 (ip), vehicle: saline 94 % of control | dose: 7.5 mg/kg/injection, schedule: Q01DX009 (ip), vehicle: saline 119 % of control | dose: 10.0 mg/kg/injection, schedule: Q01DX001 (ip), vehicle: saline 97 % of control | dose: 20.0 mg/kg/injection, schedule: Q01DX001 (ip), vehicle: saline 113 % of control | dose: 25.0 mg/kg/injection, schedule: Q04DX003 (ip), vehicle: saline with Tween-80 105 % of control | dose: 40.0 mg/kg/injection, schedule: Q01DX001 (ip), vehicle: saline 122 % of control | dose: 50.0 mg/kg/injection, schedule: Q04DX003 (ip), vehicle: saline with Tween-80 110 % of control | dose: 80.0 mg/kg/injection, schedule: Q01DX001 (ip), vehicle: saline 105 % of control | [4] 93 % of control

O=C(NNCCO)C(O)C(O)C(O)C(O)CO (stereo not drawn)
inactive: [5] 97 % of control | [6] 97 % of control | [7] 97 % of control

CC(=O)Oc1ccc(Cl)cc1Cl
inactive: [4] 100 % of control | dose: 200.0 mg/kg/injection, schedule: Q04DX003 (ip), vehicle: saline with Tween-80 97 % of control

COc1ccc(OC)c(CCCC(=O)O)c1
inactive: dose: 50.0 mg/kg/injection, schedule: Q01DX001 (ip), vehicle: carboxymethylcellulose (CMC) 108 % of control | [8] 104 % of control | [9] 104 % of control | [10] 102 % of control

CC(=O)c1cccc(NC(=O)c2ccc(F)cc2)c1
inactive: [11] 100 % of control | [12] 98 % of control | [13] 88 % of control

O=c1ssc(=Nc2ccccc2)n1-c1ccccc1
inactive: dose: 100.0 mg/kg/injection, schedule: Q04DX003 (ip), vehicle: gum acacia 103 % of control | dose: 200.0 mg/kg/injection, schedule: Q04DX003 (ip), vehicle: gum acacia 104 % of control | dose: 400.0 mg/kg/injection, schedule: Q04DX003 (ip), vehicle: gum acacia 101 % of control

CCC1=C(C)C(C)OC(C)=C1C (stereo not drawn) (tested in a mixture with another compound)
inactive: [14] 93 % of control | [15] 90 % of control | [16] 93 % of control

O=C1N(c2ccccc2)C(c2ccccc2)C1(c1ccccc1)c1ccccc1 (stereo not drawn)
inactive: dose: 100.0 mg/kg/injection, schedule: Q01DX001 (ip), vehicle: gum acacia 92 % of control | dose: 200.0 mg/kg/injection, schedule: Q01DX001 (ip), vehicle: gum acacia 86 % of control | dose: 400.0 mg/kg/injection, schedule: Q01DX001 (ip), vehicle: gum acacia 94 % of control

Cc1nc(-c2ccccc2)c(-c2ccccc2)[nH]1
inactive: [17] 99 % of control | dose: 66.0 mg/kg/injection, schedule: Q01DX009 (ip), vehicle: Klucel (hydroxypropylcellulose) (HPC) 113 % of control | [18] 111 % of control | [19] 101 % of control | dose: 150.0 mg/kg/injection, schedule: Q01DX009 (ip), vehicle: Klucel (hydroxypropylcellulose) (HPC) 92 % of control | [20] 101 % of control

C#CCCCCC#C
inactive: [17] 98 % of control | [18] 106 % of control | [19] 98 % of control | [21] 97 % of control | [20] 91 % of control | [22] 86 % of control

C/C=C(\C)C(=Nc1ccc(Cl)c(Cl)c1)N(C)C
inactive: dose: 222.0 mg/kg/injection, schedule: Q01DX Z (ip), vehicle: saline 102 % of control | dose: 333.0 mg/kg/injection, schedule: Q01DX Z (ip), vehicle: saline 100 % of control | dose: 500.0 mg/kg/injection, schedule: Q01DX Z (ip), vehicle: saline 118 % of control

CCC1(C)CCC2C(=CCC3C(C)(C(=O)O)CCCC23C)C1 (stereo not drawn)
inactive: [11] 91 % of control | [12] 93 % of control | [13] 86 % of control

C1CCC(N2OC23CCCCC3)CC1 (stereo not drawn)
inactive: [8] 92 % of control | [9] 90 % of control | [10] 92 % of control

Nc1c(Cl)ccc2c(Cl)ccnc12
inactive: [14] 111 % of control | dose: 150.0 mg/kg/injection, schedule: Q04DX003 (ip), vehicle: other 89 % of control | [15] 98 % of control | dose: 300.0 mg/kg/injection, schedule: Q04DX003 (ip), vehicle: other 97 % of control | [16] 104 % of control

CCN(C(=S)Nc1cccc(OC)c1)c1ccccc1
inactive: [18] 90 % of control | [21] 94 % of control

CN(CC1CCCCC1=O)CC1CCCCC1=O (stereo not drawn)
inactive: dose: 100.0 mg/kg/injection, schedule: Q01DX001 (ip), vehicle: steriod suspending solution 97 % of control | dose: 200.0 mg/kg/injection, schedule: Q01DX001 (ip), vehicle: steriod suspending solution 104 % of control | dose: 400.0 mg/kg/injection, schedule: Q01DX001 (ip), vehicle: steriod suspending solution 106 % of control

CCOC(=O)c1ccccc1NC(=O)Nc1cc([N+](=O)[O-])ccc1F
inactive: [19] 88 % of control | [20] 92 % of control | [22] 86 % of control

CCN(CC)c1ccc(/C=N/NC(=S)NC23CC4CC(CC(C4)C2)C3)cc1
inactive: [1] 100 % of control | [2] 101 % of control | [3] 92 % of control

CC(C)C1(O)C=CC(C)(O)CC1 (stereo not drawn)
inactive: [5] 102 % of control | [6] 102 % of control | [7] 107 % of control
